# According to patent US20130295145A1, “TOPICAL PHARMACEUTICAL COMPOSITIONS COMPRISING ETODOLAC” (CADILA HEALTHCARE LIMITED, priority 2010, published 2013):
# Assay: Stability study on nanogel composition of Example 1 (storage at 40° C. and 75% relative humidity)
# Format: physicochemical
# Settings: for % Drug in the formulation, 1 Month / % Drug in the formulation, 2 Month / % Drug in the formulation, 3 Month: 40° C. and 75% relative humidity; for % Drug in the formulation, 2 Month: 2 months; for % Drug in the formulation, 3 Month: 3 months
# Description: Stability Study on Nanogel Composition of Example 1
# [1] = nanogel Formulation 1 of Example 1
# [2] = nanogel Formulation 2 of Example 1
SMILES,"% Drug in the formulation, 1 Month [1] [%]","% Drug in the formulation, 2 Month [1] [%]","% Drug in the formulation, 3 Month [1] [%]","% Drug in the formulation, Initial [1] [%]","% Drug in the formulation, 1 Month [2] [%]","% Drug in the formulation, 2 Month [2] [%]","% Drug in the formulation, 3 Month [2] [%]","% Drug in the formulation, Initial [2] [%]"
"CCc1cccc2c3c([nH]c12)C(CC)(CC(=O)O)OCC3 (racemic) [Etodolac, (RS)-2-(1,8-Diethyl-4,9-dihydro-3H-pyrano[3,4-b]indol-1-yl)acetic acid]",99.5,97.7,95.9,101.6,97.6,103.0,102.3,100.4
COC(=O)c1ccccc1O [Methyl salicylate],100.9,95.2,93.2,97.3,101.2,97.7,97.2,100.2
